According to patent US9315522B2, “Antibacterial compounds” (JANSSEN SCIENCES IRELAND UC, priority 2012, dated 2016):
Values after ≈ are worked out from the molar mass of the structure shown.

Biological target: T1, S. aureus ATCC 29213 FabI (Staphylococcus aureus, UniProt Q6GI75)
T1 sequence (Q6GI75 1-256): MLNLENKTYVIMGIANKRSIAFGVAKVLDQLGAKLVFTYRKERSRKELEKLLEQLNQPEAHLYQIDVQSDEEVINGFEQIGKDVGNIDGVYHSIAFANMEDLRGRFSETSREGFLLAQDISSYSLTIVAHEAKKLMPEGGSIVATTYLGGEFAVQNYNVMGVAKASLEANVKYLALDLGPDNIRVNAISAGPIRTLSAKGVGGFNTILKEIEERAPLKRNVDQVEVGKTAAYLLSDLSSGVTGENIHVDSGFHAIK
Test: Staphylococcus aureus FabI enzyme inhibition assay
Type: biochemical
Conditions: read-out: FabI (300.235) IC50 (converted)
Experimental: Y.1 FabI Enzyme Inhibition: Staphylococcus aureus FabI Enzyme Inhibition Assay
FabI enzyme inhibition assays were carried out in half-area, 384-well microtitre plates. Compounds were evaluated in 40-μl assay mixtures containing 100 mM NaADA, pH 6.5 (ADA=N-[2-acetamido]-2iminodiacetic acid), 250 μM crotonoyl-CoA, 625 μM NADH and 50 μg/ml S. aureus ATCC 29213 FabI. Inhibitors were typically varied over the range of 50 to 0.39 μM. The reaction mixtures were incubated for 30 minutes at room temperature and the reaction was stopped by adding 200 mM Tris buffer (pH 9.0) to create a pH-shift. The consumption of NADH was monitored by measuring the change in absorbance at […]. By comparing sample readings to those of negative (absence of compound) and positive (absence of enzyme) controls, the percent inhibition of enzymatic activity of the compounds was determined A best-fit curve is fitted by a minimum of squares method. From this an IC50-value (expressed in μg/ml), resulting in 50% inhibition of enzymatic activity, was obtained.

O=C1CNCc2cc(/C=C/C(=O)N3CC4C=C(c5ccncc5)CC4C3)cnc2N1 (stereo not shown) [compound 52] and O=C1COCc2cc(/C=C/C(=O)N3CC4C=C(c5ccncc5)CC4C3)cnc2N1 (stereo not shown) [compound 54] are within 1.5-fold of each other in IC50: 971 nM for the first, 1020 nM for the second.

O=C1Nc2ncc(/C=C/C(=O)N3CC4C=C(c5ccncc5)CC4C3)cc2CO1 (stereo not shown) [compound 55] and Cn1nccc1C1=CC2CN(C(=O)/C=C/c3cnc4c(c3)COCC(=O)N4)CC2C1 (stereo not shown) [compound 56] are within 1.5-fold of each other in IC50: 927 nM for the first, 1180 nM for the second.

Compared with Cn1nccc1C1=CC2CN(C(=O)/C=C/c3cnc4c(c3)CNCC(=O)N4)CC2C1 (stereo not shown) [compound 57], COc1ccccc1N1C[C@H]2CN(C(=O)/C=C/c3cnc4c(c3)CN(C)CC(=O)N4)C[C@H]2C1 [compound 59] is 2.4-fold higher in IC50: 939 nM for the first, 2230 nM for the second.

CN1CC(=O)Nc2ncc(/C=C/C(=O)N3C[C@@H]4CN(c5ccccc5)C[C@@H]4C3)cc2C1 [compound 58] and CC(C)C1Oc2cc(/C=C/C(=O)N3CC4C=C(c5ccccc5)CC4C3)cnc2NC1=O (stereo not shown) [compound 63] are within 1.5-fold of each other in IC50: 1700 nM for the first, 1420 nM for the second.

Tested on: Staphylococcus aureus ATCC 29213
Test: Antibacterial susceptibility testing, IC90 determination (STA)
Type: cell-based
Conditions: Staphylococcus aureus, ATCC29213, Staphylococcus aureus ATCC 29213, broth microdilution, resazurin; read-out: STA (361.159) IC90
Experimental: (§1) The following bacteria were used: Staphylococcus aureus ATCC 29213, methicillin-resistant Staphylococcus aureus (MRSA) ATCC 700788 and Escherichia coli ATCC 35218. The bacteria used in this study were grown overnight in flasks containing 100 ml Mueller-Hinton broth (Difco cat. nr. 0757-17) in sterile de-ionized water, with shaking, at 37° C. Stocks were store at −70° C. until use.
(§2) Bacteria were incubated on a tryptic soy agar plate containing 5% sheep blood (Becton Dickinson cat. nr. 254053) for 18-24 hours at 35° C. in aerobic conditions (first passage). For the second passage, fresh Mueller-Hinton broth is inoculated with 5-10 colonies and grown overnight at 35° C. until turbidity (reaching log-phase) in aerobic conditions is reached. The bacterial suspension is then adjusted to 0.5 McFarland density and further diluted 1:100 in Mueller Hinton broth medium. This is used as inoculum.
The result(s) are depicted the table below (for STA ATCC 29213).
(§3) MIC assays were performed by the broth microdilution method in a 96-well format (flat-bottom microtitre plates) with a final volume of 0.1 ml Mueller Hinton broth containing two-fold serial dilutions of compounds and inoculated with 5×10^5 CFU/ml of bacteria (standard inoculum size according to CLSI guidelines). Inhibitors are typically varied over the range of 63 to 0.49 μM. The final DMSO concentration in the assay was 1.25% (maximum tolerable DMSO concentration=6%). In the assays where the effect of human serum on the activity of the compounds against S. aureus was tested, human serum was added at a final concentration of 10%. The plates were incubated at 35° C. for 16-20 hours. At the end of incubation the bacterial growth was quantified fluorometrically. For this, resazurin was added to all wells and the plates were re-incubated. The incubation time is dependent on the type of bacteria. A change in color from blue to pink indicated the growth of bacteria. The fluorescence was read in computer-controlled fluorometer (Fluoroskan Ascent FL, Labsystems) at an excitation wavelength 540 nm and an emission wavelength of 590 nm. The % growth inhibition achieved by the compounds was calculated according to standard methods. The IC90 (expressed in μg/ml) was defined as the 90% inhibitory concentration for bacterial growth. A panel of reference compounds were simultaneously tested for QC approval.

O=C1CNCc2cc(/C=C/C(=O)N3CC4C=C(c5ccncc5)CC4C3)cnc2N1 (stereo not shown) [compound 52] and O=C1COCc2cc(/C=C/C(=O)N3CC4C=C(c5ccncc5)CC4C3)cnc2N1 (stereo not shown) [compound 54] are within 1.5-fold of each other in IC90: 0.37 µg/mL (≈ 0.922 µM) for the first, 0.38 µg/mL (≈ 0.944 µM) for the second.

First: O=C1Nc2ncc(/C=C/C(=O)N3CC4C=C(c5ccncc5)CC4C3)cc2CO1 (stereo not shown) [compound 55]
Second: Cn1nccc1C1=CC2CN(C(=O)/C=C/c3cnc4c(c3)COCC(=O)N4)CC2C1 (stereo not shown) [compound 56]
The IC90 of the first is 2-fold lower: 0.76 µg/mL (≈ 1.96 µM) for the first, 1.51 µg/mL (≈ 3.72 µM) for the second.

First: Cn1nccc1C1=CC2CN(C(=O)/C=C/c3cnc4c(c3)CNCC(=O)N4)CC2C1 (stereo not shown) [compound 57]
Second: COc1ccccc1N1C[C@H]2CN(C(=O)/C=C/c3cnc4c(c3)CN(C)CC(=O)N4)C[C@H]2C1 [compound 59]
The IC90 of the first is 2.2-fold lower: 1.54 µg/mL (≈ 3.81 µM) for the first, 3.39 µg/mL (≈ 7.57 µM) for the second.

Going from CN1CC(=O)Nc2ncc(/C=C/C(=O)N3C[C@@H]4CN(c5ccccc5)C[C@@H]4C3)cc2C1 [compound 58] to CC(C)C1Oc2cc(/C=C/C(=O)N3CC4C=C(c5ccccc5)CC4C3)cnc2NC1=O (stereo not shown) [compound 63], the IC90 falls from 3.39 µg/mL (≈ 8.12 µM) to less than 0.21 µg/mL.

Tested on: S. aureus
Test: Antibacterial susceptibility testing, IC90 determination with 10% human serum (STA + 10% HS)
Type: cell-based, Staphylococcus aureus
Conditions: Staphylococcus aureus, human serum at final concentration of 10%, read-out: STA + 10% HS (361.169) IC90
Experimental: as §1, §2, §3
The results are depicted in the table(s) below (STA+10% HS).

O=C1CNCc2cc(/C=C/C(=O)N3CC4C=C(c5ccncc5)CC4C3)cnc2N1 (stereo not shown) [compound 52] and O=C1COCc2cc(/C=C/C(=O)N3CC4C=C(c5ccncc5)CC4C3)cnc2N1 (stereo not shown) [compound 54] are the same in IC90: 0.35 µg/mL for the first, 0.35 µg/mL for the second.

Compared with O=C1Nc2ncc(/C=C/C(=O)N3CC4C=C(c5ccncc5)CC4C3)cc2CO1 (stereo not shown) [compound 55], Cn1nccc1C1=CC2CN(C(=O)/C=C/c3cnc4c(c3)COCC(=O)N4)CC2C1 (stereo not shown) [compound 56] is 2-fold higher in IC90: 0.71 µg/mL for the first, 1.44 µg/mL for the second.

Compared with Cn1nccc1C1=CC2CN(C(=O)/C=C/c3cnc4c(c3)CNCC(=O)N4)CC2C1 (stereo not shown) [compound 57], COc1ccccc1N1C[C@H]2CN(C(=O)/C=C/c3cnc4c(c3)CN(C)CC(=O)N4)C[C@H]2C1 [compound 59] is 2.1-fold higher in IC90: 1.52 µg/mL for the first, 3.17 µg/mL for the second.

Compared with CN1CC(=O)Nc2ncc(/C=C/C(=O)N3C[C@@H]4CN(c5ccccc5)C[C@@H]4C3)cc2C1 [compound 58], CC(C)C1Oc2cc(/C=C/C(=O)N3CC4C=C(c5ccccc5)CC4C3)cnc2NC1=O (stereo not shown) [compound 63] is 8.7-fold lower in IC90: 3.13 µg/mL for the first, 0.36 µg/mL for the second.

Tested on: not listed separately
Test: Cytotoxicity MTT assay (HELAM)
Type: cell-based, Human
Conditions: human, HelaM cells, read-out: HELAM (222.125) CC50
Experimental: Cytotoxicity of the compounds was evaluated using the MTT assay. Human HelaM cells grown in 96-well plates were exposed to serial dilutions of the tested compounds (final volume of 0.2 ml) and incubated for 72 hours at 37° C. and 5% CO2. Inhibitors are typically varied over the range of 25 to 0.8 μM. The final DMSO concentration in the assay is 0.5%. MTT (3-(4,5-Dimethylthiazol-2-yl)-2,5-diphenyltetrazolium bromide, a tetrazole) was added and reduced to purple formazan only in living cells. Solubilization of the formazan crystals was achieved by adding 100 μl 2-propanol. Cell viability was determined by measuring the absorbance of the reduced formazan, giving a purple color, at 540 nm and 690 nm. The absorbance measured at 690 nm was automatically subtracted from the absorbance at 540 nm, to eliminate the effects of non-specific absorption. The percent cytotoxicity achieved by the compounds was calculated according to standard methods. Cytotoxicity is reported as CC50, the concentration that causes a 50% reduction in cell viability.
The results are depicted in the table(s) below (HELAM).

O=C1CNCc2cc(/C=C/C(=O)N3CC4C=C(c5ccncc5)CC4C3)cnc2N1 (stereo not shown) [compound 52] and O=C1COCc2cc(/C=C/C(=O)N3CC4C=C(c5ccncc5)CC4C3)cnc2N1 (stereo not shown) [compound 54] cannot be ordered by CC50 at 72 h: greater than 10.1 µg/mL for the first, greater than 10.1 µg/mL for the second.

O=C1Nc2ncc(/C=C/C(=O)N3CC4C=C(c5ccncc5)CC4C3)cc2CO1 (stereo not shown) [compound 55] and Cn1nccc1C1=CC2CN(C(=O)/C=C/c3cnc4c(c3)COCC(=O)N4)CC2C1 (stereo not shown) [compound 56] cannot be ordered by CC50 at 72 h: greater than 9.76 µg/mL for the first, greater than 10.2 µg/mL for the second.

Cn1nccc1C1=CC2CN(C(=O)/C=C/c3cnc4c(c3)CNCC(=O)N4)CC2C1 (stereo not shown) [compound 57] and COc1ccccc1N1C[C@H]2CN(C(=O)/C=C/c3cnc4c(c3)CN(C)CC(=O)N4)C[C@H]2C1 [compound 59] cannot be ordered by CC50 at 72 h: greater than 10.2 µg/mL for the first, greater than 11.2 µg/mL for the second.

CN1CC(=O)Nc2ncc(/C=C/C(=O)N3C[C@@H]4CN(c5ccccc5)C[C@@H]4C3)cc2C1 [compound 58] and CC(C)C1Oc2cc(/C=C/C(=O)N3CC4C=C(c5ccccc5)CC4C3)cnc2NC1=O (stereo not shown) [compound 63] cannot be ordered by CC50 at 72 h: greater than 10.5 µg/mL for the first, greater than 10.8 µg/mL for the second.

Tested on: not given
Test: not given
Conditions: not given

O=C1CNCc2cc(/C=C/C(=O)N3CC4C=C(c5ccncc5)CC4C3)cnc2N1 (stereo not shown) [compound 52] showed a melting point greater than 260 °C.

Going from O=C1COCc2cc(/C=C/C(=O)N3CC4C=C(c5ccncc5)CC4C3)cnc2N1 (stereo not shown) [compound 54] to O=C1Nc2ncc(/C=C/C(=O)N3CC4C=C(c5ccncc5)CC4C3)cc2CO1 (stereo not shown) [compound 55], the melting point rises from 154 °C to 156 °C.

Compared with Cn1nccc1C1=CC2CN(C(=O)/C=C/c3cnc4c(c3)COCC(=O)N4)CC2C1 (stereo not shown) [compound 56], Cn1nccc1C1=CC2CN(C(=O)/C=C/c3cnc4c(c3)CNCC(=O)N4)CC2C1 (stereo not shown) [compound 57] is higher in melting point: 149 °C for the first, 228 °C for the second.

First: CN1CC(=O)Nc2ncc(/C=C/C(=O)N3C[C@@H]4CN(c5ccccc5)C[C@@H]4C3)cc2C1 [compound 58]
Second: COc1ccccc1N1C[C@H]2CN(C(=O)/C=C/c3cnc4c(c3)CN(C)CC(=O)N4)C[C@H]2C1 [compound 59]
The melting point of the first is higher: 178.9 to 179.8 °C for the first, 114 °C for the second.

With CC(C)C1Oc2cc(/C=C/C(=O)N3CC4C=C(c5ccccc5)CC4C3)cnc2NC1=O (stereo not shown) [compound 63] the melting point was 224.9 °C.
